# Where “and” joins values, the source holds several entries; their conditions need not be identical. Identical values can stand only once.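 Following 48 hours of exposure in 96-well plates, responses at five concentrations were used to interpolate endpoints linearly. GI50: concentration for 50% inhibition of growth. TGI: concentration producing complete growth inhibition.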
# Assays:
# Assay in all cases: NCI anticancer screen, dose series, 48 h
# [1] = test system: SK-MEL-28 melanoma
# [2] = test system: SW-620 colon
# [3] = test system: TK-10 renal
# [4] = test system: SNB-19 CNS
# [5] = test system: SF-539 CNS
# [6] = test system: T-47D breast
# [7] = test system: MDA-N
# [8] = test system: U251 CNS
# [9] = test system: UACC-257 melanoma
# [10] = test system: KM12 colon
# [11] = test system: LOX IMVI melanoma
# [12] = test system: HS 578T breast
# [13] = test system: SK-OV-3 ovarian
# [14] = test system: K-562 leukemia
# [15] = test system: HOP-92 NSCLC
# [16] = test system: A498 renal
Structure (SMILES),TGI [1],TGI [2],TGI [3],TGI [4],TGI [5],TGI [6],TGI [7],TGI [8],TGI [9],TGI [10],TGI [11],TGI [12],TGI [13],TGI [14],TGI [15],TGI [16],GI50 [1],GI50 [2],GI50 [15],GI50 [13]
CCc1ccccc1NC(=O)C(=O)CC(=O)c1sc(Nc2ccccc2Cl)nc1C,> 100 µM,69.9 µM,> 100 µM,> 100 µM,66.1 µM,> 100 µM,94.4 µM,> 100 µM,> 100 µM,> 100 µM,44 µM,> 100 µM,63.3 µM,> 100 µM,–,–,–,–,–,–
CCOC(=O)c1ccc(N=c2oc3ccc(OC)cc3cc2-c2nc3ccccc3[nH]2)cc1,> 100 µM,> 100 µM,> 100 µM,> 100 µM,6.03 µM,> 100 µM,> 100 µM,> 100 µM,> 100 µM,> 100 µM,> 100 µM,> 100 µM,> 100 µM,> 100 µM,> 100 µM,–,–,–,–,–
CC1=CC(=O)/C(=C/n2c(=S)[nH]c3ccc([N+](=O)[O-])cc32)C(=O)O1,> 100 µM,> 100 µM,> 100 µM,> 100 µM,> 100 µM,> 100 µM,> 100 µM,> 100 µM,> 100 µM,> 100 µM,> 100 µM,> 100 µM,> 100 µM,> 100 µM,> 100 µM,–,–,–,–,–
O=[N+]([O-])c1ccc(C(=Nc2ccccc2)SSC(=Nc2ccccc2)c2ccc([N+](=O)[O-])o2)o1,7.04 µM,–,13.9 µM,4.07 µM,4.01 µM,5.79 µM,12.4 µM,2.24 µM,> 21.9 µM,4.15 µM,3.83 µM,5.34 µM,14.3 µM,–,6.22 µM,–,–,–,–,–
CC(=O)CCC[C@H](C)[C@@H](O)[C@@H]1O[C@H]([C@@]2(C)CCC(=O)O2)C[C@H]1C(=O)O,> 100 µM,> 100 µM,> 100 µM,> 100 µM,> 100 µM,> 100 µM,> 100 µM,> 100 µM,> 100 µM,> 100 µM,> 100 µM,> 100 µM,> 100 µM,> 100 µM,–,–,–,–,–,–
COc1cccc(Nc2nc(N)nc(N)c2N=O)c1,69.8 µM,> 100 µM,60.5 µM,> 100 µM,35.7 µM,24.3 µM,> 100 µM,> 100 µM,56.9 µM,> 100 µM,32.6 µM,82.4 µM,> 100 µM,> 100 µM,40 µM,47.7 µM,–,–,–,–
CN(C)CCCN1c2ccccc2CCc2cc([N+](=O)[O-])ccc21,80.9 µM and 28.2 µM,> 100 µM and 32.6 µM,69 µM and 27.8 µM,> 100 µM and 31.7 µM,74.5 µM and 31.4 µM,43.9 µM and 37.7 µM,45.3 µM and 29.1 µM,64.2 µM and 32.9 µM,38 µM and 29.5 µM,71 µM and 35.1 µM,37.2 µM and 28.2 µM,71.9 µM and 34.3 µM,> 100 µM and 32.6 µM,> 100 µM and 38.6 µM,58.1 µM and 22.6 µM,61.4 µM and 25.8 µM,28.2 µM and 13.9 µM,37.2 µM and 16.3 µM,21.8 µM and 7.69 µM,38.7 µM and 17.3 µM
OC(CC(O)(C(F)(F)F)C(F)(F)F)C(O)c1ccco1 (stereo not given),> 10 µM,> 10 µM,> 10 µM,> 10 µM,> 10 µM,> 10 µM,> 10 µM,> 10 µM,> 10 µM,> 10 µM,> 10 µM,> 10 µM,> 10 µM,> 10 µM,–,> 10 µM,–,–,–,–
C=CCC1C(=O)Nc2cccc3ncn(c23)C1=O (stereo not given),> 100 µM,> 100 µM,–,> 100 µM,> 100 µM,> 100 µM,> 100 µM,> 100 µM,> 100 µM,> 100 µM,–,> 100 µM,> 100 µM,> 100 µM,> 100 µM,> 100 µM,–,–,–,–
COc1ccc(C(SCC(N)C(=O)O)(c2ccc(OC)cc2)c2ccc(OC)cc2)cc1 (stereo not given),16.8 µM,–,25.6 µM,22.6 µM,17.6 µM,21.4 µM,12.7 µM,29.8 µM,17.3 µM,16.2 µM,17.2 µM,19.5 µM,72.3 µM,> 31.6 µM,31.6 µM,22.7 µM,–,–,–,–
O=C(OCc1ccccc1)N1CCCc2c(n(S(=O)(=O)c3ccccc3)c3ccccc23)C1,> 100 µM,> 100 µM,> 100 µM,> 100 µM,> 100 µM,> 100 µM,> 100 µM,> 100 µM,> 100 µM,> 100 µM,> 100 µM,> 100 µM,> 100 µM,> 100 µM,> 100 µM,> 100 µM,–,–,–,–
COC(=O)[C@@H]1OC(C)(c2ccccc2)O[C@H]1C(=O)OC,> 100 µM,> 100 µM,> 100 µM,> 100 µM,> 100 µM,> 100 µM,> 100 µM,> 100 µM,> 100 µM,> 100 µM,> 100 µM,> 100 µM,> 100 µM,> 100 µM,> 100 µM,> 100 µM,–,–,–,–
COc1ccc(C2=NN(C(=O)c3cccnc3)C(O)(c3cc(F)c(Cl)cc3Cl)C2)cc1OC (stereo not given),54.4 µM,69.8 µM,> 100 µM,> 100 µM,33.5 µM,> 100 µM,90 µM,29.1 µM,34.2 µM,> 100 µM,27.2 µM,66.9 µM,86.7 µM,69 µM,50.8 µM,–,–,–,–,–
O=C(c1ccccc1)C1C[C@H]2CO[C@H](c3ccccc3)N2C1=O (stereo not given in full),> 100 µM,> 100 µM,> 100 µM,> 100 µM,> 100 µM,> 100 µM,> 100 µM,> 100 µM,> 100 µM,> 100 µM,> 100 µM,> 100 µM,–,> 100 µM,> 100 µM,–,–,–,–,–
CC1c2cc(c3c(c2O)CN([C@@H](C)C2CCCCC2)CO3)C(C)c2cc(c3c(c2O)CN([C@@H](C)C2CCCCC2)CO3)C(C)c2cc(c3c(c2O)CN([C@@H](C)C2CCCCC2)CO3)C(C)c2cc1c1c(c2O)CN([C@@H](C)C2CCCCC2)CO1 (stereo not given in full),3.55 µM,–,3.19 µM,3.44 µM,–,3.23 µM,3.04 µM,2.83 µM,3.24 µM,2.15 µM,–,3.15 µM,2.72 µM,2.01 µM,2.85 µM,3.57 µM,–,–,–,–

# Reference: PubChem BioAssay (NCI)
